Experiment [1] deals with P. vivax and P. falciparum. Particulars: 2099 cases of malaria (P. vivax and P. falciparum about 3:1), different dosage forms; cited from earlier work.
For a further experiment, the system named is P388 leukemia. The conditions noted are these: NCI Report on NSC 369397, tested on 25 Oct. 1983; cited from earlier work.
For experiment [2], the system named is chloroquine-sensitive P. falciparum (NF54). Briefly: in vitro antimalarial activity, [3H]hypoxanthine incorporation. Format: cell-based. Particulars: Plasmodium falciparum. The text has this:
To determine the antimalarial effect of the disclosed trioxane sulfur dimer compounds of Formula I, screening assays may be performed against chloroquine-sensitive P. falciparum (NF54). Using the methods described below, the IC50 values of these compounds may be determined.
Antimalarial activity may be determined by measuring the incorporation of [^3H]hypoxanthine by the methods of DesJardins and Milhous with the following modifications, see Desjardins, R. E.; Canfield, C. J.; Haynes, J. D.; Chulay, J. D., Antimicrob. Agents Chemother., 16:710 (1979); Milhous, W. K.; Weatherly, N. F.; Bowdre, J. H.; Desjardins, R., Antimicrob. Agents Chemother., 27:525 (1985). […]
Stock solutions (approximately 2.5 mg/mL of HPLC-purified or recrystallized test compound) are prepared in dimethyl sulfoxide (DMSO; Sigma-Aldrich #27,043-1). […] Cells may be harvested (Brandel MB-48R) onto GF-C glass filters (Brandel), and the filters washed five times with 3 mL water per sample spot, dried under a heat lamp, and counted (Beckman Model LS-6500) in scintillation cocktail (ICN Cytoscint).
Decays per minute (dpm) values may be downloaded and analyzed (Power Macintosh 7200/90; Microsoft Excel 5.0), to yield the mean and standard deviation at each drug concentration. […]

For experiment [3], the system named is human HeLa cervical cancer cells. The conditions noted are these: human HeLa cervical cancer cells in vitro; cited from earlier work.

Here are results for two compounds from patent US8592611B2, “Trioxane dimer sulfur compounds” (The Johns Hopkins University, priority 2008, dated 2013).

One may read the IC50 as the concentration that inhibits the measured activity by half.

Consider `C[C@@H]1CC[C@H]2[C@@H](C)C(=O)O[C@@H]3O[C@]4(C)CC[C@@H]1[C@]32OO4` [artemisinin], for which the clinical outcome in experiment [1] is given as “clinical cure of all patients”. The “activity against P388 leukemia” value in the experiment on P388 leukemia is “inactive”. The compound further displayed an IC50 in experiment [2] of 7.7 nM.
With `C[C@@H]1CC[C@H]2[C@@H](C)C(O)O[C@@H]3O[C@]4(C)CC[C@@H]1[C@]32OO4` (stereo partly shown) [dihydroartemisinin], in experiment [3], the concentration for half-maximal inhibition (IC50) is 5000 to 10000 nM.
